Like-named read-outs stand apart in the source and are kept apart here.

This experiment deals with human P2X7 receptor (Homo sapiens, UniProt Q99572, R270H/Y155H). The experiment can be described thus: Evaluation of human P2X7 receptor inhibitory activity (Yo-Pro uptake, BzATP stimulation, FLIPR TETRA). It is filed as cell-based. A digest of the protocol:
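1321N1 cells stably expressing human P2X7 (T606C/G952A SNP variant), in HBSS buffer pH 7.4-7.5 with Yo-Pro, stimulated with BzATP; compound added 8 min after agonist. Fluorescence followed for 20 min on FLIPR; max-minus-min change gave % inhibition, IC50 by logistic fit.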

Setting [1] is: 1321N1 cells stably expressing human P2X7 receptor, BzATP stimulation, Yo-Pro uptake, read-out: IC50 (antagonistic activity for the human P2X7 receptor), class symbol.
Setting [2] is: antagonistic activity for the human P2X7 receptor, read-out: IC50.
Where [3] appears, read: 1321N1 cells stably expressing human P2X7 receptor, BzATP stimulation, Yo-Pro uptake, read-out: IC50 (antagonistic activity for the human P2X7 receptor).

In the case of `COc1cn(Cc2ccccc2)c(Nc2cccc3[nH]c(C)cc23)nc1=O` [Compound I-0134], the IC50 under setting [1] was 10 to 100 nM.

For `COc1ccc(C)c(Nc2nc(=O)c(CO)nn2Cc2cc(F)c(F)c(F)c2)c1` [Compound I-1246], the IC50 under setting [2] was below 10 nM.

Consider `COc1cc(Nc2nc(=O)ccn2Cc2ccc(F)c(Cl)c2)c(C)c(OC)c1` [Compound I-1166], for which the IC50 under setting [2] is below 10 nM.

Take `CCOc1ccc(Nc2nc(=O)c(OC)cn2Cc2cc(F)cc(Cl)c2)c(C)c1` [Compound I-0681]: the IC50 under setting [2] was in the range of 10 to 100 nM.

Take `COc1ccc(Nc2nc(=O)cnn2Cc2cc(F)cc(F)c2)c(C)c1` [Compound I-1271]: under setting [2], the IC50 is below 10 nM.

Take `COc1cn(Cc2ccc(F)c(Cl)c2)c(Nc2cc(OC(F)F)c(C)cc2C)nc1=O` [Compound I-0876]: the IC50 under setting [2] was below 10 nM.

Consider `COc1cc(Nc2nc(=O)c(OC)cn2Cc2ccc(F)c(Cl)c2)c(C)cc1F` [Compound I-0686], for which, under setting [2], the IC50 was below 10 nM.

As for `COc1cn(Cc2cc(F)cc(Cl)c2)c(Nc2cc(-c3nnco3)ccc2C)nc1=O` [Compound I-0667], the IC50 under setting [2] lay in the range of 10 to 100 nM.

Turning to `CCOc1cc(Nc2nc(=O)c(OC)cn2Cc2cccc(Cl)c2)c(C)cc1C` [Compound I-0791], the IC50 under setting [2] is below 10 nM.

In the case of `Cc1ccc(-c2cscn2)cc1Nc1nc(=O)c(F)cn1Cc1ccc(F)c(F)c1` [Compound I-0861], the IC50 under setting [2] is below 10 nM.

Consider `Cc1cc2c(cc1Nc1nc(=O)c(CCO)cn1Cc1cc(F)c(F)c(F)c1)COC2` [Compound I-1127], for which, under setting [2], the IC50 was 10 to 100 nM.

Regarding `COc1cn(Cc2cc(F)cc(Cl)c2)c(Nc2cc(OC3CC3)ccc2C)nc1=O` [Compound I-0891], the half-maximal inhibitory concentration (IC50) under setting [2] lay in the range of 10 to 100 nM.

`COc1cn(Cc2cc(F)c(F)c(F)c2)c(Nc2cccc3[nH]c(=O)ccc23)nc1=O` [Compound I-0602]: the IC50 under setting [2] is 100 to 500 nM.

With `COc1cn(Cc2ccccc2)c(Nc2cccc(F)c2C)nc1=O` [Compound I-0082], the IC50 under setting [1] lay in the range of 100 to 500 nM.

Consider `COc1cn(Cc2c(F)cccc2F)c(Nc2cccc(Cl)c2C)nc1=O` [Compound I-0311], for which the IC50 under setting [1] lay within 100 to 500 nM.

With `COc1cn(Cc2ccccc2F)c(Nc2cc(C)c(C)cc2C)nc1=O` [Compound I-0176], the IC50 under setting [3] was 13 nM.

Turning to `CCc1cc2c(cc1Nc1nc(=O)c(OC)cn1Cc1cc(F)cc(F)c1)OCO2` [Compound I-0743], under setting [2], the IC50 is 10 to 100 nM.

Take `COc1cc(C)c(Nc2nc(=O)c(OC)cn2Cc2cc(F)cc(F)c2)cc1Cl` [Compound I-0617]: the IC50 under setting [2] is below 10 nM.

For the molecule `COc1cccc(Cn2cc(OC)c(=O)nc2Nc2cccc(Cl)c2C)c1` [Compound I-0052], the IC50 under setting [3] worked out at 130 nM.

With `COc1cn(Cc2ccccc2)c(Nc2ccccc2C(F)(F)F)nc1=O` [Compound I-0089], the IC50 under setting [1] lay in the range of 500 to 1000 nM.

For the molecule `Cc1ccc(CF)cc1Nc1nc(=O)c(F)cn1Cc1cc(F)cc(F)c1` [Compound I-1240], the IC50 under setting [2] was below 10 nM.

Turning to `COc1cn(Cc2ccccc2Cl)c(Nc2cc(C)c(C)cc2C)nc1=O` [Compound I-0192], the 50% inhibitory concentration (IC50) under setting [1] fell in the range of 10 to 100 nM.

`CCc1cc(C)c(C)cc1Nc1nc(=O)c(OC)cn1Cc1ccccc1` [Compound I-0265]: under setting [1], the IC50 was below 10 nM.

With `O=c1nc(Nc2cccc3c2CCCO3)n(Cc2cc(F)c(F)c(F)c2)cc1F` [Compound I-1173], the IC50 under setting [2] is below 10 nM.

As for `COc1cc(Nc2nc(=O)c(F)cn2Cc2cc(F)c(F)c(F)c2)c(C)nc1OC` [Compound I-1235], the half-maximal inhibitory concentration (IC50) under setting [2] was below 10 nM.

With `Cc1cc2c(cc1Nc1nc(=O)c(F)cn1Cc1ccc(F)c(F)c1)CCO2` [Compound I-1072], the IC50 under setting [2] is below 10 nM.

In the case of `COc1cn(Cc2cc(F)cc(F)c2)c(Nc2cc3c(cc2C)OCCC3)nc1=O` [Compound I-0913], the IC50 under setting [2] lay within 10 to 100 nM.

For `COc1cn(Cc2ccccc2)c(Nc2cc3[nH]ccc3cc2C)nc1=O` [Compound I-0618], the IC50 under setting [3] amounted to 7 nM.

As to `COc1cn(Cc2ccccc2COC(F)F)c(Nc2cccc(Cl)c2C)nc1=O` [Compound I-0422], under setting [1], the IC50 was 500 to 1000 nM.

For `COc1cn(Cc2ccc(F)c(F)c2)c(Nc2cc(-c3cccnc3)ccc2C)nc1=O` [Compound I-0764], the IC50 under setting [2] is below 10 nM.

In the case of `COc1cc(C)c(Nc2nc(=O)c(Cl)cn2Cc2ccc(F)c(Cl)c2)cc1OC` [Compound I-0345], under setting [1], the IC50 is below 10 nM.

`COc1cn(Cc2ccc(F)c(Cl)c2)c(Nc2cccc3c(=O)[nH]ccc23)nc1=O` [Compound I-0398]: under setting [1], the IC50 fell in the range of 10 to 100 nM.

Turning to `CCc1ccccc1Nc1nc(=O)c(OC)cn1Cc1ccccc1` [Compound I-0084], the IC50 under setting [1] is 10 to 100 nM.

With `COc1cn(Cc2ccc(F)c(Cl)c2)c(Nc2cc(N3CCCC3)ccc2C)nc1=O` [Compound I-0884], the IC50 under setting [2] was 10 to 100 nM.

As to `Cc1c(Cl)cccc1Nc1nc(=O)c(OCc2ccccc2)cn1Cc1ccccc1` [Compound I-0149], the IC50 under setting [3] was found to be 26 nM.

As to `COc1cn(Cc2cccc(Cl)c2)c(Nc2cc3sc(C)nc3cc2C)nc1=O` [Compound I-0562], the IC50 under setting [1] was 10 to 100 nM.

Consider `COc1cccc(Nc2nc(=O)c(OC)cn2Cc2ccccc2)c1Cl` [Compound I-0115], for which the IC50 under setting [1] was in the range of 10 to 100 nM.

Take `CCOC(=O)c1cn(Cc2ccc(F)c(F)c2)c(Nc2cc(C)c(OC)cc2C)nc1=O` [Compound I-1109]: the IC50 under setting [2] was below 10 nM.

For `CCc1c(Nc2nc(=O)c(OC)cn2Cc2cccc(Cl)c2)cccc1OC` [Compound I-0214], the IC50 under setting [1] was below 10 nM.

For the molecule `COc1cn(Cc2cc(F)cc(F)c2)c(Nc2cc(Oc3ccccn3)ccc2C)nc1=O` [Compound I-0897], the IC50 under setting [2] is below 10 nM.

With `COC(=O)c1cccc(Nc2nc(=O)c(OC)cn2Cc2ccccc2)c1C` [Compound I-0088], under setting [1], the IC50 is 100 to 500 nM.

As to `COc1nc2ccc(Nc3nc(=O)c(OC)cn3Cc3ccc(F)c(Cl)c3)c(C)c2s1` [Compound I-0826], the IC50 under setting [2] was 10 to 100 nM.

Regarding `C=C1C(c2cc(Nc3nc(=O)c(F)cn3Cc3cc(F)c(F)c(F)c3)c(C)cc2F)=CC=CN1C` [Compound I-1222], the IC50 under setting [2] was below 10 nM.

Regarding `Cc1cc2[nH]ccc2cc1Nc1nc(=O)c(F)cn1Cc1cc(F)cc(F)c1` [Compound I-1044], the half-inhibitory concentration (IC50) under setting [2] was below 10 nM.

As for `COc1cn(Cc2cc(F)cc(F)c2)c(Nc2cccc(C)c2C)nc1=O` [Compound I-0326], the IC50 under setting [1] was below 10 nM.

Take `COc1cc(Nc2nc(=O)c(OC)cn2Cc2cc(F)cc(Cl)c2)c(C)cc1Cl` [Compound I-0537]: under setting [1], the IC50 was below 10 nM.

On to `COc1cn(Cc2ccc(F)c(Cl)c2)c(Nc2ccc(Cl)cc2C)nc1=O` [Compound I-0564], for which the IC50 under setting [1] was 10 to 100 nM.

With `COc1cn(Cc2cc(F)c(F)c(F)c2)c(Nc2cc3nc(C)sc3cc2C)nc1=O` [Compound I-0760], the IC50 under setting [2] is 10 to 100 nM.

On to `COc1cn(Cc2ccc(F)c(F)c2)c(Nc2cccc3[nH]c(C)cc23)nc1=O` [Compound I-0488], for which the IC50 under setting [1] was 10 to 100 nM.

For the molecule `C=Cc1ccccc1Nc1nc(=O)c(F)cn1Cc1cc(F)c(F)c(F)c1` [Compound I-1188], the concentration for half-maximal inhibition (IC50) under setting [3] came to 4 nM.

With `COc1cn(Cc2ccccc2)c(Nc2cc(-c3ccnn3C)ccc2C)nc1=O` [Compound I-0782], the IC50 under setting [2] lay in the range of 100 to 500 nM.

`Cc1cc(OC(F)F)c(C)cc1Nc1nc(=O)c(F)cn1Cc1ccc(F)c(Cl)c1` [Compound I-0834]: the IC50 under setting [2] is below 10 nM.

As to `Cc1cc2[nH]ncc2cc1Nc1nc(=O)c(F)cn1Cc1cc(F)cc(F)c1` [Compound I-1092], the IC50 under setting [2] was 10 to 100 nM.

Consider `COc1cn(Cc2cccc(Cl)c2)c(Nc2cc3c(cc2C)OCCO3)nc1=O` [Compound I-0290], for which, under setting [1], the IC50 lay within 10 to 100 nM.

As for `COc1ccc(Nc2nc(=O)cnn2Cc2ccccc2F)c(C)c1` [Compound I-1275], under setting [2], the IC50 was in the range of 100 to 500 nM.

For the molecule `Cc1cccc(Nc2nc(=O)c(F)cn2Cc2ccccc2)c1C` [Compound I-0128], the IC50 under setting [1] was 10 to 100 nM.

Regarding `COc1cn(Cc2ccccc2)c(Nc2cc(OC(F)F)ccc2C)nc1=O` [Compound I-0870], the IC50 under setting [2] was in the range of 10 to 100 nM.

With `COc1cn(Cc2cc(F)cc(Cl)c2)c(Nc2cc(C)c(Cl)cc2C)nc1=O` [Compound I-0385], the IC50 under setting [1] was 10 to 100 nM.

Turning to `COc1cc(C)c(Nc2nc(=O)c(F)cn2Cc2cc(F)c(F)c(F)c2)cc1Cl` [Compound I-1175], under setting [2], the IC50 was below 10 nM.

With `COc1cn(Cc2cccc(Cl)c2)c(Nc2cccc3[nH]c(C)cc23)nc1=O` [Compound I-0487], the IC50 under setting [3] is 25 nM.

Regarding `COc1cn(Cc2cc(F)c(F)c(F)c2)c(Nc2ccc(OC(F)(F)F)cc2C)nc1=O` [Compound I-0596], under setting [2], the IC50 lay in the range of 10 to 100 nM.

As to `COc1cc(C)c(Nc2nc(=O)c(OC)cn2Cc2ccc(F)c(F)c2)cc1Cl` [Compound I-0616], the IC50 under setting [2] was below 10 nM.

`CCOc1cc(Nc2nc(=O)c(OC)cn2Cc2ccccc2)c(C)cc1C` [Compound I-0790]: the IC50 under setting [2] is below 10 nM.

Take `COc1cc(C)c(Nc2nc(=O)c(OC)cn2Cc2cc(F)c(F)c(F)c2)cc1OC` [Compound I-0623]: under setting [2], the IC50 is below 10 nM.

In the case of `COc1cc(C)c(Nc2c(Cl)c(=O)c(OC)cn2Cc2ccc(F)c(Cl)c2)cc1C` [Compound I-0964], the IC50 under setting [2] lay in the range of 100 to 500 nM.

Turning to `COc1cn(Cc2ccc(F)c(F)c2)c(Nc2cc(-n3cccc3)ccc2C)nc1=O` [Compound I-0653], the IC50 under setting [2] is below 10 nM.

In the case of `COc1cn(Cc2cc(F)cc(F)c2)c(Nc2cc(S(C)(=O)=O)cc(C)c2C)nc1=O` [Compound I-0758], the IC50 under setting [2] lay within 10 to 100 nM.

In the case of `COc1cn(Cc2cc(F)cc(Cl)c2)c(Nc2cc(Cl)c(Cl)cc2C)nc1=O` [Compound I-0666], the IC50 under setting [2] fell in the range of 100 to 500 nM.

Consider `CCOc1ccc(Nc2nc(=O)c(OC)cn2Cc2ccccc2)c(C)c1` [Compound I-0676], for which, under setting [2], the IC50 lay in the range of 100 to 500 nM.

In the case of `COc1cn(Cc2cccc(Cl)c2)c(Nc2cc(OCC(F)(F)F)ccc2C)nc1=O` [Compound I-0494], the IC50 under setting [1] fell in the range of 10 to 100 nM.

With `COCc1cn(Cc2cc(F)c(F)c(F)c2)c(Nc2cc(C)c(OC)cc2C)nc1=O` [Compound I-1156], the IC50 under setting [2] is below 10 nM.

For the origin of these results see US10774051B2, “6-membered heterocyclic derivatives and pharmaceutical composition comprising the same” (Shionogi & Co., Ltd., priority 2015, dated 2020).
